Literature values in patent US12324430B2, “Topical antiseptic system” (INFECTION CONTAINMENT COMPANY, LLC, priority 2015, dated 2025).

Row | Substance | water solubility (in words)
1 | zinc glycerate | moderately water soluble
2 | zinc picolinate | moderately water soluble
